Measurements: PubChem BioAssay AID1963450 (Molecular Pharmacology Branch, DTP, NCI, 2024)

Tested on: 556581-035-R-J1-PDC complex spheroid growth
Assay: Anticancer human tumor 556581-035-R-J1-PDC patient-derived ovarian carcinoma cell line growth inhibition [Asc]
Conditions: for IC50: curve of first compound; for viability, T/C: stronger effect = lower value
In short: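 Tumor cells were grown as complex spheroids with human endothelial cells (HUVEC) and human mesenchymal stem cells as stroma. Agents were tested alone and in combination, in half-log steps down from the clinical Cmax, or from 10 microM where Cmax was unknown.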

[1] = second compound 0.01 µM, first compound 0.00316 µM
[2] = second compound 0.01 µM, first compound 0.01 µM
[3] = second compound 0.01 µM, first compound 0.0316 µM
[4] = second compound 0.01 µM, first compound 0.1 µM
[5] = second compound 0.01 µM, first compound 0.316 µM
[6] = second compound 0.01 µM, first compound 1 µM
[7] = second compound 0.0316 µM, first compound 0.00316 µM
[8] = second compound 0.0316 µM, first compound 0.01 µM
[9] = second compound 0.0316 µM, first compound 0.0316 µM
[10] = second compound 0.0316 µM, first compound 0.1 µM
[11] = second compound 0.0316 µM, first compound 0.316 µM
[12] = second compound 0.0316 µM, first compound 1 µM
[13] = second compound 0.1 µM, first compound 0.00316 µM
[14] = second compound 0.1 µM, first compound 0.01 µM
[15] = second compound 0.1 µM, first compound 0.0316 µM
[16] = second compound 0.1 µM, first compound 0.1 µM
[17] = second compound 0.1 µM, first compound 0.316 µM
[18] = second compound 0.1 µM, first compound 1 µM
[19] = second compound 0.316 µM, first compound 0.00316 µM
[20] = second compound 0.316 µM, first compound 0.01 µM
[21] = second compound 0.316 µM, first compound 0.0316 µM
[22] = second compound 0.316 µM, first compound 0.1 µM
[23] = second compound 0.316 µM, first compound 0.316 µM
[24] = second compound 0.316 µM, first compound 1 µM
[25] = second compound 1 µM, first compound 0.00316 µM
[26] = second compound 1 µM, first compound 0.01 µM
[27] = second compound 1 µM, first compound 0.0316 µM
[28] = second compound 1 µM, first compound 0.1 µM
[29] = second compound 1 µM, first compound 0.316 µM
[30] = second compound 1 µM, first compound 1 µM
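Note: spheroids exposed to agents for 7 days before viability read.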

Row | SMILES | IC50 (second compound 0.01 µM) | IC50 (second compound 0.0316 µM) | IC50 (second compound 0.1 µM) | IC50 (second compound 0.316 µM) | IC50 (second compound 1 µM) | viability, T/C [1] | viability, T/C [2] | viability, T/C [3] | viability, T/C [4] | viability, T/C [5] | viability, T/C [6] | viability, T/C [7] | viability, T/C [9] | viability, T/C [10] | viability, T/C [15] | viability, T/C [16] | viability, T/C [21] | viability, T/C [22] | viability, T/C [27] | viability, T/C [28] | also measured
1 | CCN1CCN(Cc2ccc(Nc3ncc(F)c(-c4cc(F)c5nc(C)n(C(C)C)c5c4)n3)nc2)CC1 + CNC(C)C(=O)NC1CN(S(=O)(=O)c2cccc(S(=O)(=O)N3CCC4CCC(C(=O)NC(c5ccccc5)c5ccccc5)N4C(=O)C(NC(=O)C(C)NC)C3)c2)CCC2CCC(C(=O)NC(c3ccccc3)c3ccccc3)N2C1=O | > 1000 nM | > 1000 nM | 339 nM | 318 nM | 251 nM | 94.7% | 97.4% | 67.4% | 73.6% | 78.5% | 72.2% | 87.5% | 83% | 85.7% | 78.8% | 65.4% | 86.5% | 57.8% | 82.7% | 56.2% | viability, T/C [8]: 88.7%; viability, T/C [11]: 75.5%; viability, T/C [12]: 56.2%; viability, T/C [13]: 73.6%; viability, T/C [14]: 79.3%; viability, T/C [17]: 51.6%; viability, T/C [18]: 44%; viability, T/C [19]: 84.3%; viability, T/C [20]: 82.8%; viability, T/C [23]: 56%; viability, T/C [24]: 37.6%; viability, T/C [25]: 78.2%; viability, T/C [26]: 82.8%; viability, T/C [29]: 51.7%; viability, T/C [30]: 33%
2 | Cn1ncnc1[C@H]1c2n[nH]c(=O)c3cc(F)cc(c23)N[C@@H]1c1ccc(F)cc1 + CNC(C)C(=O)NC1CN(S(=O)(=O)c2cccc(S(=O)(=O)N3CCC4CCC(C(=O)NC(c5ccccc5)c5ccccc5)N4C(=O)C(NC(=O)C(C)NC)C3)c2)CCC2CCC(C(=O)NC(c3ccccc3)c3ccccc3)N2C1=O | > 100 nM | > 100 nM | > 100 nM | > 100 nM | > 100 nM | 80.4% | 83.8% | 71.4% | 72.9% |  |  | 79.2% | 89.9% | 88.8% | 69.2% | 62.2% | 77.4% | 69.9% | 71.8% | 67% | viability, T/C (second compound 0.01 µM, first compound 0.000316 µM): 69.2%; viability, T/C (second compound 0.01 µM, first compound 0.001 µM): 69.1%; viability, T/C (second compound 0.0316 µM, first compound 0.000316 µM): 84.4%; viability, T/C (second compound 0.0316 µM, first compound 0.001 µM): 98.2%; viability, T/C [8]: 77%; viability, T/C (second compound 0.1 µM, first compound 0.000316 µM): 92.7%; viability, T/C (second compound 0.1 µM, first compound 0.001 µM): 73.7%; viability, T/C [13]: 65.5%; viability, T/C [14]: 69.2%; viability, T/C (second compound 0.316 µM, first compound 0.000316 µM): 76.3%; viability, T/C (second compound 0.316 µM, first compound 0.001 µM): 74%; viability, T/C [19]: 63.8%; viability, T/C [20]: 74%; viability, T/C (second compound 1 µM, first compound 0.000316 µM): 78.8%; viability, T/C (second compound 1 µM, first compound 0.001 µM): 77.6%; viability, T/C [25]: 71.1%; viability, T/C [26]: 69.5%
3 | O=C(c1cc(Cc2n[nH]c(=O)c3ccccc23)ccc1F)N1CCN(C(=O)C2CC2)CC1 + CNC(C)C(=O)NC1CN(S(=O)(=O)c2cccc(S(=O)(=O)N3CCC4CCC(C(=O)NC(c5ccccc5)c5ccccc5)N4C(=O)C(NC(=O)C(C)NC)C3)c2)CCC2CCC(C(=O)NC(c3ccccc3)c3ccccc3)N2C1=O | > 10000 nM | > 10000 nM | > 10000 nM | > 10000 nM | 10000 nM |  |  | 83.4% | 74.5% | 88.2% | 93.8% |  | 89.3% | 88.7% | 84.4% | 67% | 88% | 76.3% | 76.8% | 84.1% | viability, T/C (second compound 0.01 µM, first compound 3.16 µM): 52.8%; viability, T/C (second compound 0.01 µM, first compound 10 µM): 56.8%; viability, T/C [11]: 87.3%; viability, T/C [12]: 88.8%; viability, T/C (second compound 0.0316 µM, first compound 3.16 µM): 55.3%; viability, T/C (second compound 0.0316 µM, first compound 10 µM): 73.1%; viability, T/C [17]: 67.2%; viability, T/C [18]: 61.5%; viability, T/C (second compound 0.1 µM, first compound 3.16 µM): 49.1%; viability, T/C (second compound 0.1 µM, first compound 10 µM): 61.2%; viability, T/C [23]: 86%; viability, T/C [24]: 76%; viability, T/C (second compound 0.316 µM, first compound 3.16 µM): 50%; viability, T/C (second compound 0.316 µM, first compound 10 µM): 63.2%; viability, T/C [29]: 73.8%; viability, T/C [30]: 88%; viability, T/C (second compound 1 µM, first compound 3.16 µM): 45.7%; viability, T/C (second compound 1 µM, first compound 10 µM): 61.2%
4 | O=C(c1ccc(F)c(F)c1Nc1ccc(I)cc1F)N1CC(O)([C@@H]2CCCCN2)C1 + CNC(C)C(=O)NC1CN(S(=O)(=O)c2cccc(S(=O)(=O)N3CCC4CCC(C(=O)NC(c5ccccc5)c5ccccc5)N4C(=O)C(NC(=O)C(C)NC)C3)c2)CCC2CCC(C(=O)NC(c3ccccc3)c3ccccc3)N2C1=O | 219 nM | 187 nM | 92 nM | 183 nM | 119 nM | 68.6% | 71.7% | 87.2% | 83.6% | 37% | 10.6% | 86.4% | 84.2% | 71.9% | 59.7% | 50.8% | 91.7% | 66.3% | 74% | 53.6% | viability, T/C [8]: 72.7%; viability, T/C [11]: 31.2%; viability, T/C [12]: 13.3%; viability, T/C [13]: 68.3%; viability, T/C [14]: 64.5%; viability, T/C [17]: 27.1%; viability, T/C [18]: 12.7%; viability, T/C [19]: 73.9%; viability, T/C [20]: 68.8%; viability, T/C [23]: 33.7%; viability, T/C [24]: 15.2%; viability, T/C [25]: 70.9%; viability, T/C [26]: 81.4%; viability, T/C [29]: 24.6%; viability, T/C [30]: 11.2%
